Test results from publication PMC6804080, “Benzoxaboroles—Novel Autotaxin Inhibitors” (Molecules, 2019).
≈ marks a conversion by molar mass, not a printed value.

Experiments:
Autotaxin (ATX) = biological target: T1, Autotaxin (ATX) (Homo sapiens, UniProt Q13822); test: biochemical choline detection assay for ATX inhibition, LysoPC substrate; settings: for IC50: mean standard deviation from duplicate experiments
T1 construct: we added 10 μL of recombinant ATX (2 ng/mL) in a Tris–HCl buffer
Description: All 21 new benzoxaboroles derivatives prepared herein were evaluated for ATX inhibition in vitro using a biochemical choline detection assay, combining elements of assays already described in the literature.
[…] Mother plates with serial dilutions of compounds in pure DMSO were prepared from 10 mM DMSO stock solutions. Storplate-384-deep-well-V plates (Perkin Elmer) were also used for mother plate preparation. Compounds were diluted in a DMSO in a ratio of 1:3. An aliquot of 200 nL of compound solution was transferred from the mother plate to the test plate with a Mosquito nanoliter liquid handling system (TTP labtech). The assay was performed in Spectra-Plate-384 TC, transparent, (Perkin Elmer, Cat#6007658) using a 20 µL assay volume. The total final percentage of DMSO in the test media was 1%. Compounds were tested at 11 consecutive three-fold dilutions starting from 50 µM (final concentrations) in duplicate, covering range of 0.0008–50 μM to determine IC50 values. […] After dispensing of compounds directly to the dry plate, we added 10 μL of recombinant ATX (2 ng/mL) in a Tris–HCl buffer (140 mM NaCl, 1mM MgCl2, 5 mM KCl, 3 mM CaCl2, 1 mg/ml bovin serum albumin (BSA, fatty acid free) and 100 mM Tris–HCl, pH 9). […] The above-described solution with dimethyl sulfoxide but without the test compound was used as a control. LysoPC without ATX was used as a control for the autohydrolysis of LysoPC. After 1.5 h of incubation, 20 μL of stop solution and developer was added {Choline oxidase (1.2 U/mL), Peroxidase (1.2 U/mL), TOOS (2.7 mM), 4-Aminoantipyrine (2.7 mM), and EDTA (50 mM)} to the reaction mixture, and absorbance was measured after 30 min of incubation. The absorbance was measured by using Perkin-Elmer EnVision plate reader (λ = 555 nm). Data were analyzed using GraphPad Prism software. The calculation of IC50 data, curves and quality control (QC) analysis was made by using Excel tools and GraphPadPrism software. Briefly, individual concentration–effect curves were generated by plotting the logarithm of the tested concentration of tested compounds (X) vs. corresponding percentage inhibition values (Y) using a least squares (ordinary) fit. […] QC criteria parameters (Z,’ S:B, ΔmP) were checked for every plate.

[1] = Chrom logD determination by gradient HPLC (CHI); type: physicochemical; settings: pH 7.4, Luna C18 column; for chromatographic logD: reversed-phase HPLC, Phenomenex Luna C18 column
Description: clogP values were calculated for all compounds using the Percepta software. Chrom logD was determined experimentally using a procedure described in the supplementary data. Furthermore, the correlation between calculated clogP values and experimentally determined Chrom log D values were explored for molecules containing boron functional groups such as boronic acids and benzoxaboroles.
Chrom logD values were determined from the following equation: Chrom logD = 0.0857 × CHI − 2 [39]. Chromatographic hydrophobic index (CHI) values were determined from the gradient retention times (RT). These values approximately corresponded to the volume percentage of organic component in the mobile phase when the compound elutes. CHI values were determined at pH 7.4. Chromatograms were obtained using on Agilent 1100 Series liquid chromatography system with an HPLC diode-array detector (DAD) coupled with a Micromass Quattro micro atmosphere pressure ionization (API) mass spectrometer. The column used for analyses was Phenomenex Luna C18 (50 × 3 mm, 5 µm, 100 Å). The column was maintained at 25 °C. The flow rate was 1.0 mL/min. The mobile phase was composed of 50 mM ammonium acetate in water at pH 7.4 (solvent A) and acetonitrile (solvent B). The solvent gradient condition was initially 0.5% B, and then it increased linearly to 100% B over 3.0 min, remaining at 100% B for 0.5 min, then decreasing linearly to 0% B over 0.2 min followed by an equilibration period of 1.3 min prior to the next injection. The total experimental duration was 5 min. Injection volume was 2.0 µl. Samples temperature was maintained at 15 °C in the autosampler chamber. A group of ten standard compounds having different CHI values was used for calibration of RP-HPLC [40].

[2] = in vitro plasma stability, rat plasma; type: in vitro ADME; settings: after 4 h
Description: (§1) The in vitro plasma stability of the test compounds was studied in human and rat plasma with propranolol, benflorex, and eucatropine as control substances. All compounds at final concentrations of 5 μM (0.5% DMSO) were incubated in a phosphate buffer (50 mM, pH 7.4) for 4 h at 37 °C together with plasma. Aliquots were taken at different time points (0, 30, 120 min and 4 h), followed by reaction termination by the addition of CH3CN:CH3OH 2:1 v/v., which contained diclofenac and warfarin as internal standards (IS). Samples were then centrifuged (at 1600 rpm at 4 °C for 30 min), and the resulting supernatants were subjected to LC/MS/MS analysis. Results are expressed as % remaining.

[3] = metabolic stability in human liver microsomes; type: in vitro ADME
Description: (§2) Metabolic stability was assessed in rat and human liver microsomes, with testosterone and propranolol as positive controls. All compounds, at a final concentration of 1 μM (0.03% DMSO), were incubated in a phosphate buffer (50 mM, pH 7.4) for 60 min at 37 °C, together with liver microsomes in the absence and presence of NADPH generating system (nicotinamide adenine dinucleotide phosphate (NADP, 2 mM), glucose-6-phosphate (20 mM), glucose-6-phosphate dehydrogenase (6U) and magnesium chloride (2 mM)). Aliquots were taken at different time points (0, 10, 20, 30, 45 and 60 min), followed by reaction termination by addition of CH3CN:CH3OH 2:1 v/v, containing diclofenac as internal standard (IS). Samples were then centrifuged (at 2000 rpm at 4 °C for 30 min), and resulting supernatants were subjected to LC/MS/MS analysis. The in vitro half-life was calculated in GraphPadPrism software from % remaining vs. time regression using non-linear regression fit. In vitro intrinsic clearance, expressed as mL/min/g liver, was determined from in vitro half-life and normalized for the protein concentration in the incubation mixture, assuming a 52.5 mg/g liver.

[4] = metabolic stability in rat liver microsomes; type: in vitro ADME
Description: as §2

[5] = in vitro plasma stability, human plasma; type: in vitro ADME; settings: after 4 h
Description: as §1

[6] = kinetic solubility, turbidimetric method; type: physicochemical; settings: 37 °C, pH 7.4, aqueous buffer, kinetic from dmso stock, Solubility (kinetic solubility range)
Description: Turbidimetric solubility allows for a rapid determination of kinetic solubility by using small amounts of the test compound. Assay controls were α-naphtoflavone (low solubility) and sulfaphenazole (expected solubility >100µM). DMSO stock solutions (10 mM) of each compound were first serially diluted 1 in 3 in DMSO and then spiked into an aqueous buffer (100 mM PBS), resulting in 5 following final concentration: 100, 30, 10, 3 and 1 µM (each concentration was tested in duplicate). […] Compound samples were compared to a solvent control in an aqueous buffer (DMSO 1% final concentration), and a significant increase of sample absorbance was considered to have occurred when the absorbance reached a 3-fold standard deviation of the average DMSO absorbance. The calculation of solubility range data was made by Excel tool software. Results are expressed as an estimated solubility range.

[7] = choline release assay using as a substrate
[8] = choline release assay using LPC C16:0 as a substrate

SMILES | IC50 (Autotaxin (ATX); [7]) [µM] | chromatographic logD [1] | also measured
O=C(OCc1ccccc1)N1CCN(C2CCN(C(=O)c3ccc4c(c3)B(O)OC4)C2)CC1 (centres unmarked) [Compound 39, benzyl 4-[1-(1-hydroxy-3H-2,1-benzoxaborole-6-carbonyl)pyrrolidin-3-yl]piperazine-1-carboxylate] | > 50 | 3.05 | –
O=C(OCc1cc(Cl)cc(Cl)c1)N1CCN(C2CCN(C(=O)c3cccc4c3COB4O)C2)CC1 (centres unmarked) [Compound 33] | – | – | IC50 (Autotaxin (ATX); [8]): 8 ± 2.58 µM; Chrom logD [1]: 5.40
O=C(OCc1ccccc1)N1CCN(C2CN(C(=O)c3ccc4c(c3)COB4O)C2)CC1 [Compound 42, benzyl 4-[1-(1-hydroxy-3H-2,1-benzoxaborole-5-carbonyl)azetidin-3-yl]piperazine-1-carboxylate] | > 50 | 2.9 | –
COc1cc(COC(=O)N2CCN(C3CCN(C(=O)c4ccc5c(c4)COB5O)C3)CC2)cc(OC)c1 (centres unmarked) [Compound 48, (3,5-dimethoxyphenyl)methyl 4-[1-(1-hydroxy-3H-2,1-benzoxaborole-5-carbonyl)pyrrolidin-3-yl]piperazine-1-carboxylate] | 15 ± 6.07 | 3.03 | –
Cc1cc(C)cc(COC(=O)N2CCN(C3CCN(C(=O)c4ccc5c(c4)COB5O)C3)CC2)c1 (centres unmarked) [Compound 44, (3,5-dimethylphenyl)methyl 4-[1-(1-hydroxy-3H-2,1-benzoxaborole-5-carbonyl)pyrrolidin-3-yl]piperazine-1-carboxylate] | 4.7 ± 1.14 | 3.99 | –
COc1cc(COC(=O)N2CCN(C3CCN(C(=O)c4ccc5c(c4)B(O)OC5)C3)CC2)cc(OC)c1 (centres unmarked) [Compound 47, (3,5-dimethoxyphenyl)methyl 4-[1-(1-hydroxy-3H-2,1-benzoxaborole-6-carbonyl)pyrrolidin-3-yl]piperazine-1-carboxylate] | 14 ± 5.5 | 3.19 | –
COc1cc(COC(=O)N2CCN(C3CN(C(=O)c4ccc5c(c4)B(O)OC5)C3)CC2)cc(OC)c1 [Compound 49, (3,5-dimethoxyphenyl)methyl 4-[1-(1-hydroxy-3H-2,1-benzoxaborole-6-carbonyl)azetidin-3-yl]piperazine-1-carboxylate] | 11 ± 4.59 | 3.21 | –
Cc1cc(C)cc(COC(=O)N2CCN(C3CN(C(=O)c4ccc5c(c4)COB5O)C3)CC2)c1 [Compound 46, (3,5-dimethylphenyl)methyl 4-[1-(1-hydroxy-3H-2,1-benzoxaborole-5-carbonyl)azetidin-3-yl]piperazine-1-carboxylate] | 5.1 ± 2.75 | 4.01 | –
O=C(OCc1cc(Cl)cc(Cl)c1)N1CCN(C2CCN(C(=O)c3ccc4c(c3)COB4O)C2)CC1 (centres unmarked) [Compound 32, (3,5-dichlorophenyl)methyl 4-[1-(1-hydroxy-3H-2,1-benzoxaborole-5-carbonyl)pyrrolidin-3-yl]piperazine-1-carboxylate] | 0.37 ± 0.35 | 4.38 | ATX inhibition, range of activity (Autotaxin (ATX); in words): nanomolar range
O=C(OCc1cc(Cl)cc(Cl)c1)N1CCN(C2CN(C(=O)c3ccc4c(c3)COB4O)C2)CC1 [Compound 38, (3,5-dichlorophenyl)methyl 4-[1-(1-hydroxy-3H-2,1-benzoxaborole-5-carbonyl)azetidin-3-yl]piperazine-1-carboxylate] | 2 ± 1.73 | 4.46 | PS (plasma stability), rat [2]: 60.1 %remaining; LMS: predicted in vivo hepatic clearance, human [3]: 79 %LBF; LMS: predicted in vivo hepatic clearance, rat [4]: 82 %LBF; PS (plasma stability), human [5]: 79.1 %remaining; solubility kinetic at 1 h [6]: 30 to 100 µM (≈ 15.1 to 50.4 µg/mL)
O=C(OCc1ccccc1)N1CCN(C2CCN(C(=O)c3ccc4c(c3)COB4O)C2)CC1 (centres unmarked) [Compound 40, benzyl 4-[1-(1-hydroxy-3H-2,1-benzoxaborole-5-carbonyl)pyrrolidin-3-yl]piperazine-1-carboxylate] | > 50 | 2.9 | –
O=C(OCc1ccccc1)N1CCN(C2CN(C(=O)c3ccc4c(c3)B(O)OC4)C2)CC1 [Compound 41, benzyl 4-[1-(1-hydroxy-3H-2,1-benzoxaborole-6-carbonyl)azetidin-3-yl]piperazine-1-carboxylate] | 23 ± 1.18 | 3.07 | –
COc1cc(COC(=O)N2CCN(C3CN(C(=O)c4ccc5c(c4)COB5O)C3)CC2)cc(OC)c1 [Compound 50] | – | – | IC50 (Autotaxin (ATX); [8]): 13 ± 3.26 µM; Chrom logD [1]: 3.07
